Measurements as given in patent publication US20200115357A1, “LIVER X RECEPTORS (LXR) MODULATORS” (Phenex-FXR GmbH, priority 2017, published 2020).

Assays:
[1] = biological target: T1, LXRβ ligand-binding domain (LBD) (Homo sapiens, UniProt P55055, DUP175-175); test: LXR Gal4 reporter transient transfection assay (M2H), Gal4β LBD; type: cell-based; conditions: HEK293 cells; read-out: M2H Gal4β LBD activity range (EC50)
T1 construct: LXRβ (amino acids 156-461); expressed in transfected cells; host or cells: HEK293
T1 sequence (P55055 with tags, fused parts or gaps DUP175-175): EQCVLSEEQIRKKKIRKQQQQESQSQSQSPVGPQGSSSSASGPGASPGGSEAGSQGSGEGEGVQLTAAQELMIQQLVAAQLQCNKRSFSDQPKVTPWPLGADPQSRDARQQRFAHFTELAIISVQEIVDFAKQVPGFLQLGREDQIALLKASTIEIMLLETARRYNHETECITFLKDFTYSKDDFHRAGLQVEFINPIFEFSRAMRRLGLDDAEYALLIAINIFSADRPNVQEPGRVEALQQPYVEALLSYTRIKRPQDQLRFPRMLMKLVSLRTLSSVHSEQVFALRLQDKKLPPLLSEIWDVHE
Outline: (§1)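 Mammalian two-hybrid in HEK293 cells transiently transfected with LXRα/β full-length or LBD fused to NFkB activation domain, plus GAL4-DBD fusions of SRC1 coactivator or NCoR corepressor domains and a GAL4-responsive firefly luciferase reporter. Compounds added 4 h post-transfection (vehicle ≤0.2% DMSO), 16 h incubation; firefly luciferase normalized to Renilla.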

[2] = biological target: T2, LXRα full length (FL) (Homo sapiens, UniProt Q13133); test: LXR Gal4 reporter transient transfection assay (M2H), Gal4α FL; type: cell-based; conditions: HEK293 cells; read-out: M2H Gal4α FL activity range (EC50)
T2 construct: the full length (FL) proteins of LXRα (amino acids 1-447); NP005684; expressed in transfected cells; host or cells: HEK293
T2 sequence (Q13133 1-447): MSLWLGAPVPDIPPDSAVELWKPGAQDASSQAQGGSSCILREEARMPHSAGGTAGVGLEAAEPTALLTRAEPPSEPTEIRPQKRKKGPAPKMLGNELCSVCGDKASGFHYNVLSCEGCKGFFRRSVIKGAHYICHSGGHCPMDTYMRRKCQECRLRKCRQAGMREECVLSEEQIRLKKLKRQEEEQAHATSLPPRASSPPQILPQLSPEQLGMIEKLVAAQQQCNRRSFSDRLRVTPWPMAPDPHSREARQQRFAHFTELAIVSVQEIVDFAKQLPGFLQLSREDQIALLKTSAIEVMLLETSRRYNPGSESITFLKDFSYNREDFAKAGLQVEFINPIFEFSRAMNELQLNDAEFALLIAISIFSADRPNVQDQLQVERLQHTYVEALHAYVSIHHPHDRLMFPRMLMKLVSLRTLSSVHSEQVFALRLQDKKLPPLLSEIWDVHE
Outline: as §1

[3] = biological target: T3, LXRα ligand-binding domain (LBD) (Homo sapiens, UniProt Q13133); test: LXR Gal4 reporter transient transfection assay (M2H), Gal4α LBD; type: cell-based; conditions: HEK293 cells; read-out: M2H Gal4α LBD activity range (EC50)
T3 construct: expressed in transfected cells; host or cells: HEK293
T3 sequence (Q13133 155-447): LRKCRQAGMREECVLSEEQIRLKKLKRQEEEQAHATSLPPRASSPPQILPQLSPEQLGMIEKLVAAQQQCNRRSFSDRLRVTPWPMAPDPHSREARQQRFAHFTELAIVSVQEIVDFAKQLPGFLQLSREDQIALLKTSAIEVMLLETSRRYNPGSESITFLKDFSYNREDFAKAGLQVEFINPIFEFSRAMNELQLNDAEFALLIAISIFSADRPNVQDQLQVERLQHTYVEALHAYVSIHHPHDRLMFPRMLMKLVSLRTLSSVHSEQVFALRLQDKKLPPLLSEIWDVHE
Outline: as §1

[4] = Pharmacokinetics in mice, blood and liver exposure via LC-MS; type: in vivo; conditions: for target tissue liver reached (in words): mice, systemic exposure minimized; for liver/blood ratio, 4 h / blood exposure, 4 h / liver exposure, 4 h: Dose (mg) 20, C57BL/6J mice; for blood exposure, 4 h / liver exposure, 4 h: 4 h after administration
Procedure: The pharmacokinetics of different sulfonamides was assessed in mice after single dosing and oral and intraperitoneal administrations. Blood and liver exposure was measured via LC-MS.
The study design was as follows:
Animals: C57BL/6J (Janvier) males
Diet: standard rodent chow
Vehicle for i.p. injection: 0.5% HPMC (w:v) in water, injection volume: <5 mL/kg
Animal handling: animals were withdrawn from food at least 12 h before administration
Design: single dose oral and bid ip administration, n=3 animals per group
Sacrifice: at t=4 h after administration
Bioanalytics: LC-MS of liver and blood samples

| EC50 [1] | EC50 [2] | EC50 [3] | target tissue liver reached (in words) [4] | liver/blood ratio, 4 h ([4]; po) | blood exposure, 4 h ([4]; po) | liver exposure, 4 h ([4]; po) | liver/blood ratio, 4 h ([4]; ip) | blood exposure, 4 h ([4]; ip) | liver exposure, 4 h ([4]; ip) | SMILES |
| --- | --- | --- | --- | --- | --- | --- | --- | --- | --- | --- |
| < 100 nM | < 100 nM | < 100 nM |  |  |  |  |  |  |  | Cc1cc(C)c(S(=O)(=O)N(Cc2ccc(-c3cccc(CC(=O)O)c3)cc2)C(C)c2ccc(C(F)(F)F)o2)c(C)c1 (centres unmarked) [2/2] |
| 100 to 1000 nM | 100 to 1000 nM | 100 to 1000 nM |  |  |  |  |  |  |  | Cc1cc(C)c(S(=O)(=O)N(Cc2ccc(-c3cccc(S(=O)(=O)C(C)(C)C(=O)O)c3)cc2)Cc2ccc(C(F)(F)F)o2)c(C)c1 [5/2] |
| < 100 nM | < 100 nM | < 100 nM | effectively reached | po: 18 | po: 300 ng/mL | po: 5398 ng/mL |  |  |  | Cc1cc(C)c(S(=O)(=O)N(Cc2ccc(-c3cccc(C(C)(C)C(=O)O)c3)cc2)Cc2ccc(C(F)(F)F)o2)c(C)c1 [7/5] |
| < 100 nM | < 100 nM | < 100 nM | effectively reached | po: 11 | po: 189 ng/mL | po: 2136 ng/mL |  |  |  | COc1cc(-c2cccc(C(C)(C)C(=O)O)c2)ccc1CN(Cc1ccc(C(F)(F)F)o1)S(=O)(=O)c1c(C)cc(C)cc1C [10/4] |
| < 100 nM | < 100 nM | < 100 nM | effectively reached | po: 21 | po: 242 ng/mL | po: 5120 ng/mL |  |  |  | Cc1cc(C)c(S(=O)(=O)N(Cc2ccc(C(F)(F)F)o2)Cc2ccc(-c3cccc(C(C)(C)C(=O)O)c3)cc2Cl)c(C)c1 [10/5] |
|  | 100 to 1000 nM |  | effectively reached | po: 125 | po: 0.01 μM | po: 1.07 μM |  |  |  | Cc1ccc2ccccc2c1S(=O)(=O)N(Cc1ccc(-c2cccc(S(=O)(=O)CC(=O)O)c2)cc1)Cc1cccc(C(F)(F)F)c1 [11/19] |
| < 100 nM | < 100 nM | 100 to 1000 nM |  |  |  |  |  |  |  | Cc1cc(C)c(S(=O)(=O)N(Cc2ccc(-c3cccc(CC(=O)O)c3)cc2)Cc2ccc(C(F)(F)F)o2)c(C)c1 [Example 2, 2-(4′-(((2,4,6-Trimethyl-N-((5-(trifluoromethyl)furan-2-yl)methyl)phenyl)sulfonamido)methyl)-[1,1′-biphenyl]-3-yl)acetic acid] |
|  | 1000 to 10000 nM |  | effectively reached | po: 31 | po: 0.15 μM | po: 4.6 μM | ip: 27 | ip: 0.34 μM | ip: 9.3 μM | Cc1cc(C)c(S(=O)(=O)N(Cc2ccc(-c3cccc(S(=O)(=O)CC(=O)O)c3)cc2)Cc2ccc(C(F)(F)F)o2)c(C)c1 [Example 5, 2-((4′-(((2,4,6-Trimethyl-N-((5-(trifluoromethyl)furan-2-yl)methyl)phenyl)sulfonamido)methyl)-[1,1′-biphenyl]-3-yl)sulfonyl)acetic acid] |
| < 100 nM | < 100 nM | < 100 nM | effectively reached | po: 25 | po: 231 ng/mL | po: 5882 ng/mL |  |  |  | Cc1ccc2ccccc2c1S(=O)(=O)N(Cc1ccc(-c2cccc(C(C)(C)C(=O)O)c2)cc1)Cc1ccc(C(F)(F)F)o1 [Example 24, 2-Methyl-2-(4′-(((2-methyl-N-((5-(trifluoromethyl)furan-2-yl)methyl)naphthalene)-1-sulfonamido)methyl)-[1,1′-biphenyl]-3-yl)propanoic acid] |
| < 100 nM | < 100 nM | < 100 nM |  | po: 0.56 | po: 115 ng/mL | po: 64 ng/mL |  |  |  | Cc1cc(C)c(S(=O)(=O)N(Cc2ccc(-c3cc(F)c(CO)c(S(C)(=O)=O)c3)cc2)Cc2ccc(C(F)(F)F)o2)c(C)c1 [Example C3/2] |
